SMILES strings stand for the structures. Bounds are passed on as bounds.

What all share (type): cell-based
Experiment [1] concerns Rhizoctonia solani (RHIZSO). As to the kind of experiment: microbe, parasite or virus in culture. Particulars: Rhizoctonia solani, read-out: RHIZSO in vitro Growth Inhibition.
Experiment [2] relates to Mycosphaerella graminicola (Septoria tritici—SEPTTR). As to the kind of experiment: In vitro fungal growth inhibition, Mycosphaerella graminicola (SEPTTR). Particulars: Zymoseptoria tritici; 25 ppm in growth medium; read-out: SEPTTR in vitro Growth Inhibition.
For experiment [3], the system named is Magnaporthe grisea (Pyricularia oryzae—PYRIOR). In words: microbe, parasite or virus in culture. Conditions: Pyricularia oryzae, read-out: PYRIOR in vitro Growth Inhibition.
Experiment [4] concerns Phytophthora infestans (PHYTIN). In words: microbe, parasite or virus in culture. Particulars: Phytophthora infestans, read-out: PHYTIN in vitro Growth Inhibition.
Experiment [5] concerns Ustilago maydis (USTIMA). As to the kind of experiment: microbe, parasite or virus in culture. Particulars: Mycosarcoma maydis, read-out: USTIMA in vitro Growth Inhibition.
In experiment [6] the test system is Stagonospora nodorum (Leptosphaeria nodorum—LEPTNO). As to the kind of experiment: In vitro fungal growth inhibition, Stagonospora nodorum (LEPTNO). Conditions: Leptosphaeria; 25 ppm in growth medium; read-out: LEPTNO in vitro Growth Inhibition.

As to `COc1ccnc(C(=O)N[C@H]2COC(=O)[C@H](Cc3ccccc3)[C@@H](OC(=O)C(C)C)[C@H](C)OC2=O)c1OC(=O)c1ccccc1C` [Compound 628], the inhibition – broadly, the share of the control response that was lost under treatment – at 25 ppm was < 80% in experiment [1]; < 80% in experiment [2]; < 80% in experiment [3]; < 80% in experiment [4]; < 80% in experiment [5]; > 80% in experiment [6].
As for `COc1ccnc(C(=O)NCCCCCCCC(=O)Oc2ccc(C)c(Cl)c2)c1O` [Compound 368], the inhibition at 25 ppm in experiment [1] was > 80%; in experiment [2] it was < 80%; in experiment [3], < 80%; in experiment [4], < 80%; in experiment [5] it was < 80%; in experiment [6], < 80%.
As to `CCCSC(=O)Oc1c(OC)ccnc1C(=O)N[C@H]1COC(=O)[C@H](Cc2ccccc2)[C@@H](OC(=O)C(C)C)[C@H](C)OC1=O` [Compound 699], the inhibition at 25 ppm in experiment [1] is < 80%; in experiment [2], < 80%; in experiment [3] it was > 80%; in experiment [4], < 80%; in experiment [5] it was < 80%; in experiment [6], > 80%.
Regarding `COc1ccnc(C(=O)N[C@H]2COC(=O)[C@H](Cc3ccccc3)[C@@H](OC(=O)C(C)C)[C@H](C)OC2=O)c1OC(=O)c1ccc(F)cc1` [Compound 637], the inhibition at 25 ppm in experiment [1] was < 80%; in experiment [2], < 80%; in experiment [3], < 80%; in experiment [4], < 80%; in experiment [5] it was < 80%; in experiment [6] it was > 80%.
`COc1ccnc(C(=O)N[C@H]2COC(=O)[C@H](Cc3ccccc3)[C@@H](OC(=O)C(C)C)[C@H](C)OC2=O)c1OC(=O)c1ccc(Cl)cc1Cl` [Compound 643]: the inhibition at 25 ppm was < 80% in experiment [1]; < 80% in experiment [2]; < 80% in experiment [3]; < 80% in experiment [4]; < 80% in experiment [5]; > 80% in experiment [6].
As to `COc1ccnc(C(=O)N[C@H]2COC(=O)[C@H](Cc3ccccc3)[C@@H](OC(=O)C(C)C)[C@H](C)OC2=O)c1OC(=O)c1snnc1C` [Compound 676], the inhibition at 25 ppm in experiment [1] was < 80%; in experiment [2] it was < 80%; in experiment [3], < 80%; in experiment [4], < 80%; in experiment [5] it was < 80%; in experiment [6], > 80%.
`COc1ccnc(C(=O)N[C@H]2COC(=O)[C@H](Cc3ccccc3)[C@@H](OC(=O)C(C)C)[C@H](C)OC2=O)c1OC(=O)Oc1ccccc1` [Compound 697]: the inhibition at 25 ppm was < 80% in experiment [1]; < 80% in experiment [2]; < 80% in experiment [3]; < 80% in experiment [4]; < 80% in experiment [5]; > 80% in experiment [6].
Take `COc1ccnc(C(=O)N[C@H]2COC(=O)[C@H](Cc3ccccc3)[C@@H](OC(=O)C(C)C)[C@H](C)OC2=O)c1OC(=O)c1c(-c2c(Cl)cccc2Cl)noc1C` [Compound 677]: the inhibition at 25 ppm in experiment [1] was < 80%; in experiment [2], < 80%; in experiment [3] it was < 80%; in experiment [4], < 80%; in experiment [5], < 80%; in experiment [6], > 80%.
With `COc1ccnc(C(=O)N[C@H]2COC(=O)[C@H](Cc3ccccc3)[C@@H](OC(=O)C(C)C)[C@H](C)OC2=O)c1OC(=O)Cc1cccs1` [Compound 675], the inhibition at 25 ppm is < 80% in experiment [1]; < 80% in experiment [2]; > 80% in experiment [3]; < 80% in experiment [4]; < 80% in experiment [5]; > 80% in experiment [6].
Take `COc1ccnc(C(=O)NC(Cc2ccc(OCc3ccccc3)cc2)C(=O)O)c1O` (stereo not drawn) [Compound 374]: the inhibition at 25 ppm in experiment [1] was < 80%; in experiment [2] it was < 80%; in experiment [3], < 80%; in experiment [4], < 80%; in experiment [5], < 80%; in experiment [6], > 80%.
`COc1ccnc(C(=O)NCCCCC(=O)Oc2cccc(NC(C)=O)c2)c1O` [Compound 367]: the inhibition at 25 ppm in experiment [1] is < 80%; in experiment [2] it was < 80%; in experiment [3], > 80%; in experiment [4], < 80%; in experiment [5], < 80%; in experiment [6], < 80%.
For the compound `COc1ccnc(C(=O)NCCCCCCCCCCCC(=O)Oc2cccc(NC(C)=O)c2)c1O` [Compound 365], the inhibition at 25 ppm was < 80% in experiment [1]; < 80% in experiment [2]; > 80% in experiment [3]; < 80% in experiment [4]; < 80% in experiment [5]; < 80% in experiment [6].
`COc1ccnc(C(=O)NCCCCCCCCCCCC(=O)OCCSc2ccccc2)c1O` [Compound 364]: the inhibition at 25 ppm was < 80% in experiment [1]; < 80% in experiment [2]; > 80% in experiment [3]; < 80% in experiment [4]; < 80% in experiment [5]; < 80% in experiment [6].
For `COc1ccnc(C(=O)NCC(=O)OCCCCCc2ccccc2)c1O` [Compound 371], the inhibition at 25 ppm was > 80% in experiment [1]; < 80% in experiment [2]; < 80% in experiment [3]; < 80% in experiment [4]; < 80% in experiment [5]; < 80% in experiment [6].
On to `COc1ccnc(C(=O)NCC(=O)OC2CCCCC2)c1O` [Compound 372], for which the inhibition at 25 ppm in experiment [1] is > 80%; in experiment [2], < 80%; in experiment [3], < 80%; in experiment [4] it was < 80%; in experiment [5], < 80%; in experiment [6] it was < 80%.
In the case of `COc1ccnc(C(=O)N[C@H]2COC(=O)[C@H](Cc3ccccc3)[C@@H](OC(=O)C(C)C)[C@H](C)OC2=O)c1OC(=O)c1ccc(F)cc1F` [Compound 638], the inhibition at 25 ppm is < 80% in experiment [1]; < 80% in experiment [2]; < 80% in experiment [3]; < 80% in experiment [4]; < 80% in experiment [5]; > 80% in experiment [6].
As to `COc1ccnc(C(=O)NC(CC(N)=O)C(=O)OC/C=C(/C)CCC=C(C)C)c1O` (stereo not drawn) [Compound 373], the inhibition at 25 ppm in experiment [1] is > 80%; in experiment [2], < 80%; in experiment [3], < 80%; in experiment [4], < 80%; in experiment [5] it was < 80%; in experiment [6], < 80%.
For `COc1ccnc(C(=O)N[C@H]2COC(=O)[C@H](Cc3ccccc3)[C@@H](OC(=O)C(C)C)[C@H](C)OC2=O)c1OC(=O)c1ccc(Cl)c(Cl)c1` [Compound 644], the inhibition at 25 ppm in experiment [1] is < 80%; in experiment [2] it was < 80%; in experiment [3] it was < 80%; in experiment [4], < 80%; in experiment [5] it was < 80%; in experiment [6] it was > 80%.

The values above are taken from patent publication US6706740B2, “Fungicidal heterocyclic aromatic amides and their compositions, methods of use and preparation” (Dow AgroSciences LLC, priority 1999, dated 2004).
